Converted amounts (≈) assume the structure as drawn.
What was measured:
[1] = system: adhesion of P. aeruginosa (ST 1763) to epithelial bronchial cells (CuFi-1); set-up: method as in PMID 31216664; conditions: previous study; cited from earlier work
lectin PA-IL [2] = molecular target: T1, lectin PA-IL (Pseudomonas aeruginosa, UniProt Q05097); experiment: Isothermal titration microcalorimetry (ITC); type: binding
T1 construct: made in house; host or cells: Escherichia coli BL21(DE3)
Experimental: All the experiments were performed on MicroCal iTC200 (Malvern Instruments, Malvern, UK) at 25 °C. The freeze-dried lectin PA-IL was dissolved in 0.1 M Tris/HCl, 500 μM CaCl2, pH = 7.5, and equilibrated at room temperature for 1 h before ITC measurements. Multivalent galactosylated compounds 4, 7, 10 and 13 were diluted in the same buffer and used in 0.25–0.5 mM concentrations. Aliquots of 2 µL of the compounds were added automatically to the 0.078 mM or 0.088 mM PA-IL in the calorimeter cell. Blank experiments (injections of compounds to the buffer) were performed and heat responses were subtracted. Integrated heat effects were analyzed by global fitting of data obtained from three independent titrations for each tested compound by non-linear regression using a single site-binding model (Microcal Origin 7, Malvern Instruments, Malvern, UK). Fitted data yielded the association constant (Ka) and the enthalpy of binding (ΔH). Other thermodynamic parameters, i.e., changes in free energy (ΔG) and entropy (ΔS), were calculated from the following equation: ΔG = ΔH − TΔS = −RT ln Ka, where T is the absolute temperature and R = 8.314 J mol^−1 K^−1. The monosaccharide D-galactose was used as a control; 4 mM D-galactose was added to the 0.147 mM PA-IL in the calorimeter cell. Two titration experiments were performed and the heat responses were processed and evaluated as mentioned above.

lectin PA-IL [3] = molecular target: T1, lectin PA-IL; experiment: Analytical ultracentrifugation (sedimentation velocity), cross-linking of lectin; conditions: protein:ligand ratios 1:0.1, 1:1, 1:10
Experimental: Analytical ultracentrifugation experiments were performed using ProteomeLab XL-I analytical ultracentrifuge (Beckman Coulter, Indianapolis, IN, USA) equipped with an An-60 Ti rotor. Sedimentation velocity experiments were conducted in titanium double-sector centerpiece cells (Nanolytics Instruments, Potsdam, Germany) loaded with 390 µL of both protein sample and reference solution (PBS buffer, pH = 7.5). PA-IL without the added ligand and PA-IL samples pre-incubated with different concentrations of galactosylated dendrimers 4, 7, 10 and 13 and D-galactose (protein:ligand ratios of 1:0.1, 1:1 and 1:10) were analyzed by the sedimentation velocity experiment. All the measurements were performed in PBS buffer with 22 µM PA-IL. Data were collected using absorbance optics at 25 °C at a rotor speed of 48,000 rpm. Scans were collected at 280 nm (or alternatively at 294 nm to decrease the absorbance signal of the samples containing excess of the UV-absorbing ligands 4 and 10) at 5-min intervals and 0.003 cm spatial resolution in continuous scan mode. The partial specific volume of the protein and the solvent density and viscosity were calculated from the amino acid sequence and buffer composition, respectively, using the software Sednterp (http://bitcwiki.sr.unh.edu). The data were analyzed with the continuous c(s) distribution model implemented in the program Sedfit 15.01b. For the regularization procedure, a confidence level of 0.95 was used. The plots of c(s) distributions were created in GUSSI 1.3.1 [28].

lectin PA-IL [4] = molecular target: T1, lectin PA-IL; experiment: SPR inhibition of PA-IL binding to immobilized D-galactosides
Experimental: Surface plasmon resonance (SPR) experiments were performed on a BIAcore T200 instrument (GE Healthcare, Chicago, IL, USA) at 25 °C, using HBST running buffer (10 mM HEPES, 150 mM NaCl, 0.5 mM CaCl2, 0.05% Tween 20, pH = 7). A CM5 sensor chip (GE Healthcare, Chicago, IL, USA) covered with a carboxymethylated dextran matrix was used for ligand immobilization. The sensor chip surface was activated with N-ethyl-N-(3-dimethylaminopropyl)carbodiimide/N-hydroxysuccinimide solution and then coated with streptavidin (Sigma-Aldrich, St. Louis, MO, USA) in 10 mM acetate pH = 5.0 according to the manufacturer’s standard protocol to a final response of 7000 RU. Unreacted groups were blocked with 1 M ethanolamine-HCl, pH = 8.5. 0.5 mM biotinylated carbohydrate (1:1 mixture of biotin-α-D-galactoside and biotin-β-D-galactoside for measuring channel and α-L-fucoside for blank channel, all Lectinity, Moskow, Russia) was injected into a particular channel at a flow rate of 5 μL min^−1.
In the experimental setup, SPR inhibition measurements were carried out simultaneously on both measuring and blank channels at a flow rate of 5 µL min^−1. […] The response of the blank channel was subtracted from the response of lectin bound to the galactose-modified surface at equilibrium and plotted against the concentration of inhibitor in order to determine IC50 (concentration of inhibitor resulting in 50% inhibition of binding). As IC50 is not a constant and depends on the experimental set-up, a parameter called potency was used for characterization. The potency of a tested inhibitor is the ratio of IC50 of a chosen standard inhibitor (in this case, D-galactose) and the inhibitor in question. Pure lectin PA-IL was used as a control (0% inhibition).

lectin PA-IL [5] = molecular target: T1, lectin PA-IL; experiment: Hemagglutination inhibition assay (HIA) with microscope detection; type: biochemical
Experimental: PA-IL was dissolved in the buffer with calcium ions suitable for the activity of the lectin (20 mM Tris/HCl, 150 mM NaCl, 5 mM CaCl2, pH = 7.5) to the concentration 0.25 mg mL^−1. Lectin was mixed with carbohydrate inhibitors serially diluted in the buffer in a 5 µL:5 µL ratio. Therefore, the final (working) concentration of the lectin was 0.125 mg mL^−1. A total of 10 µL of 20% papain-treated, azid-stabilized red blood cells B^+ in the buffer was then added, and the mixture was thoroughly mixed and incubated for 5 min at room temperature. After incubation, the mixture was again mixed, transferred to a microscope slide, and examined. The examination was conducted using the Levenhuk D2L NG Digital Microscope (Levenhuk, Tampa, FL, USA). Images were obtained with a Levenhuk D2L digital camera (Levenhuk, Tampa, FL, USA) using the software ToupView for Windows (Version 3.7, Levenhuk, Tampa, FL, USA). The positive (experiment without inhibitor) and negative control (experiment without lectin) were prepared and processed in the same way using the appropriate volume of dissolving buffer instead of the omitted components. The minimal inhibitory concentration (MIC) of the inhibitor able to inhibit hemagglutination was determined and compared with the standard (D-galactose) and the potency of the inhibitor was calculated (MIC of the standard/MIC of the inhibitor).

T1 sequence (Q05097 2-122): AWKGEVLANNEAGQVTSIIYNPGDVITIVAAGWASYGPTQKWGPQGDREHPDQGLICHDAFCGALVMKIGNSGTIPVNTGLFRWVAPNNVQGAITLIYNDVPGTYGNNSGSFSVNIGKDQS

| SMILES | most effective concentration [1] | Kd (lectin PA-IL [2]) | ΔH (lectin PA-IL [2]; ITC, 25 °C) | −T ΔS (lectin PA-IL [2]; ITC, 25 °C, calculated from ΔG = ΔH − TΔS) | ΔG (lectin PA-IL [2]; ITC, 25 °C, calculated from −RT ln Ka) | n (stoichiometry) (lectin PA-IL [2]; ITC, 25 °C, single site-binding model) | cross-linking of PA-IL (formation of the 6.4 S particle) (lectin PA-IL [3]) | IC50 (lectin PA-IL [4]) | Potency (IC50 of standard/IC50 of inhibitor) (lectin PA-IL [4]; SPR, standard D-galactose) | β (Potency/Valency) (lectin PA-IL [4]; SPR, standard D-galactose) | Potency (MIC of standard/MIC of inhibitor) (lectin PA-IL [5]; HIA, standard D-galactose) | β (Potency/Valency) (lectin PA-IL [5]; HIA, standard D-galactose) | MIC (minimal inhibitory concentration) (lectin PA-IL [5]; inhibition of hemagglutination caused by PA-IL (0.125 mg mL−1), papain-treated red blood cells B+) |
| --- | --- | --- | --- | --- | --- | --- | --- | --- | --- | --- | --- | --- | --- |
| C[C@@H]1O[C@@H](OCc2cn(CCOCCOCCOCCn3cc(COCC(COCc4cn(CCOCCOCCOCCn5cc(CO[C@@H]6O[C@@H](C)[C@@H](O)[C@@H](O)[C@@H]6O)nn5)nn4)(COCc4cn(CCOCCOCCOCCn5cc(CO[C@@H]6O[C@@H](C)[C@@H](O)[C@@H](O)[C@@H]6O)nn5)nn4)COCc4cn(CCOCCOCCOCCn5cc(CO[C@@H]6O[C@@H](C)[C@@H](O)[C@@H](O)[C@@H]6O)nn5)nn4)nn3)nn2)[C@@H](O)[C@H](O)[C@@H]1O [Compound 14] | 250 µM | – | – | – | – | – | – | – | – | – | – | – | – |
| O=C[C@H](O)[C@@H](O)[C@@H](O)[C@H](O)CO [D-galactose, reference compound] | – | 147 µM | -9.03 ± 0.698 kcal/mol | 3.8 ± 0.507 kcal/mol | -5.23 ± 0.294 kcal/mol | 0.78 ± 0.05 | negligible effect | 187 µM | 1 | 1 | 1 | 1 | 6.25 mM (≈ 1130 µg/mL) |

From paper PMC6920806, “Synthesis of β-D-galactopyranoside-Presenting Glycoclusters, Investigation of Their Interactions with Pseudomonas aeruginosa Lectin A (PA-IL) and Evaluation of Their Anti-Adhesion Potential” (Biomolecules, 2019)
